Results: ChEMBL document CHEMBL4507290 (2021)

Experiments:
[1] = molecular target: Ribosomal protein S6 kinase alpha-4 (Homo sapiens) (UniProt O75676); conditions: Compound concentration 1000.0 nM
[2] = molecular target: Tyrosine-protein kinase ABL2 (Homo sapiens) (UniProt P42684); conditions: Compound concentration 1000.0 nM
[3] = molecular target: Calcium/calmodulin-dependent protein kinase type II subunit alpha (Homo sapiens) (UniProt Q9UQM7); conditions: Compound concentration 1000.0 nM
[4] = molecular target: Cyclin-dependent kinase 4 (Homo sapiens) (UniProt P11802); conditions: Compound concentration 1000.0 nM
[5] = molecular target: Serine/threonine-protein kinase PknB (Mycobacterium tuberculosis) (UniProt P9WI81); conditions: Compound concentration 1000.0 nM
[6] = system: eIF-2-alpha kinase GCN2 (Homo sapiens), Q9P2K8 [S808G]; conditions: Compound concentration 1000.0 nM
[7] = molecular target: GABA-A receptor; anion channel (Rattus norvegicus) (UniProt O09028+P15431+P18506+P18508+P19969+P20236+P23574+P23576+P28471+P28473+P30191+P62813+P63079+P63138+Q91ZM7+Q9ES14); conditions: Compound concentration 10.0 uM
[8] = system: Mast/stem cell growth factor receptor Kit (Homo sapiens), P10721 [D816H]; conditions: Compound concentration 1000.0 nM
[9] = molecular target: Testis-specific serine/threonine-protein kinase 3 (Homo sapiens) (UniProt Q96PN8); conditions: Compound concentration 1000.0 nM
[10] = molecular target: 5'-AMP-activated protein kinase catalytic subunit alpha-2 (Homo sapiens) (UniProt P54646); conditions: Compound concentration 1000.0 nM
[11] = molecular target: 5'-AMP-activated protein kinase catalytic subunit alpha-1 (Homo sapiens) (UniProt Q13131); conditions: Compound concentration 1000.0 nM
[12] = molecular target: Myosin light chain kinase (Homo sapiens) (UniProt Q32MK0); conditions: Compound concentration 1000.0 nM
[13] = molecular target: Serine/threonine-protein kinase D3 (Homo sapiens) (UniProt O94806); conditions: Compound concentration 1000.0 nM
[14] = molecular target: Tyrosine-protein kinase Lyn (Homo sapiens) (UniProt P07948); conditions: Compound concentration 1000.0 nM
[15] = molecular target: Proto-oncogene tyrosine-protein kinase Src (Homo sapiens) (UniProt P12931); conditions: Compound concentration 1000.0 nM
[16] = system: Epidermal growth factor receptor (Homo sapiens), P00533 [L858R]; conditions: Compound concentration 1000.0 nM
[17] = molecular target: Receptor tyrosine-protein kinase erbB-4 (Homo sapiens) (UniProt Q15303); conditions: Compound concentration 1000.0 nM
[18] = system: Receptor-type tyrosine-protein kinase FLT3 (Homo sapiens), P36888 [UNDEFINED MUTATION]; conditions: Compound concentration 1000.0 nM
[19] = molecular target: Serine/threonine-protein kinase Nek2 (Homo sapiens) (UniProt P51955); conditions: Compound concentration 1000.0 nM
[20] = molecular target: Protein kinase C epsilon type (Homo sapiens) (UniProt Q02156); conditions: Compound concentration 1000.0 nM
[21] = molecular target: Serine/threonine-protein kinase pim-2 (Homo sapiens) (UniProt Q9P1W9); conditions: Compound concentration 1000.0 nM
[22] = molecular target: Beta-2 adrenergic receptor (Homo sapiens) (UniProt P07550); conditions: Compound concentration 10.0 uM
[23] = molecular target: Serine/threonine-protein kinase Nek3 (Homo sapiens) (UniProt P51956); conditions: Compound concentration 1000.0 nM
[24] = molecular target: Fibroblast growth factor receptor 2 (Homo sapiens) (UniProt P21802); conditions: Compound concentration 1000.0 nM
[25] = molecular target: Mitogen-activated protein kinase 3 (Homo sapiens) (UniProt P27361); conditions: Compound concentration 1000.0 nM
[26] = molecular target: Vascular endothelial growth factor receptor 2 (Homo sapiens) (UniProt P35968); conditions: Compound concentration 1000.0 nM
[27] = system: Epidermal growth factor receptor (Homo sapiens), P00533 [L858R,T790M]; conditions: Compound concentration 1000.0 nM
[28] = molecular target: Tyrosine-protein kinase Blk (Homo sapiens) (UniProt P51451); conditions: Compound concentration 1000.0 nM
[29] = molecular target: Mitogen-activated protein kinase kinase kinase 19 (Homo sapiens) (UniProt Q56UN5); conditions: Compound concentration 1000.0 nM
[30] = molecular target: Serine/threonine-protein kinase N1 (Homo sapiens) (UniProt Q16512); conditions: Compound concentration 1000.0 nM
[31] = molecular target: Glycogen synthase kinase-3 alpha (Homo sapiens) (UniProt P49840); conditions: Compound concentration 1000.0 nM
[32] = molecular target: Death-associated protein kinase 2 (Homo sapiens) (UniProt Q9UIK4); conditions: Compound concentration 1000.0 nM
[33] = molecular target: Serine/threonine-protein kinase PAK 2 (Homo sapiens) (UniProt Q13177); conditions: Compound concentration 1000.0 nM
[34] = molecular target: Mitogen-activated protein kinase 14 (Homo sapiens) (UniProt Q16539); conditions: Compound concentration 1000.0 nM
[35] = molecular target: Ephrin type-B receptor 2 (Homo sapiens) (UniProt P29323); conditions: Compound concentration 1000.0 nM
[36] = molecular target: Serine/threonine-protein kinase NLK (Homo sapiens) (UniProt Q9UBE8); conditions: Compound concentration 1000.0 nM
[37] = molecular target: Atypical kinase COQ8B, mitochondrial (Homo sapiens) (UniProt Q96D53); conditions: Compound concentration 1000.0 nM
[38] = molecular target: Cyclin-dependent kinase-like 2 (Homo sapiens) (UniProt Q92772); conditions: Compound concentration 1000.0 nM
[39] = molecular target: Serine/threonine-protein kinase 38-like (Homo sapiens) (UniProt Q9Y2H1); conditions: Compound concentration 1000.0 nM
[40] = molecular target: Activin receptor type-2A (Homo sapiens) (UniProt P27037); conditions: Compound concentration 1000.0 nM
[41] = molecular target: Tyrosine-protein kinase receptor Tie-1 (Homo sapiens) (UniProt P35590); conditions: Compound concentration 1000.0 nM
[42] = molecular target: 3-phosphoinositide-dependent protein kinase 1 (Homo sapiens) (UniProt O15530); conditions: Compound concentration 1000.0 nM
[43] = system: Receptor-type tyrosine-protein kinase FLT3 (Homo sapiens), P36888 [R834Q]; conditions: Compound concentration 1000.0 nM

Sequence of Myosin light chain kinase (Homo sapiens) (Q32MK0 whole entry): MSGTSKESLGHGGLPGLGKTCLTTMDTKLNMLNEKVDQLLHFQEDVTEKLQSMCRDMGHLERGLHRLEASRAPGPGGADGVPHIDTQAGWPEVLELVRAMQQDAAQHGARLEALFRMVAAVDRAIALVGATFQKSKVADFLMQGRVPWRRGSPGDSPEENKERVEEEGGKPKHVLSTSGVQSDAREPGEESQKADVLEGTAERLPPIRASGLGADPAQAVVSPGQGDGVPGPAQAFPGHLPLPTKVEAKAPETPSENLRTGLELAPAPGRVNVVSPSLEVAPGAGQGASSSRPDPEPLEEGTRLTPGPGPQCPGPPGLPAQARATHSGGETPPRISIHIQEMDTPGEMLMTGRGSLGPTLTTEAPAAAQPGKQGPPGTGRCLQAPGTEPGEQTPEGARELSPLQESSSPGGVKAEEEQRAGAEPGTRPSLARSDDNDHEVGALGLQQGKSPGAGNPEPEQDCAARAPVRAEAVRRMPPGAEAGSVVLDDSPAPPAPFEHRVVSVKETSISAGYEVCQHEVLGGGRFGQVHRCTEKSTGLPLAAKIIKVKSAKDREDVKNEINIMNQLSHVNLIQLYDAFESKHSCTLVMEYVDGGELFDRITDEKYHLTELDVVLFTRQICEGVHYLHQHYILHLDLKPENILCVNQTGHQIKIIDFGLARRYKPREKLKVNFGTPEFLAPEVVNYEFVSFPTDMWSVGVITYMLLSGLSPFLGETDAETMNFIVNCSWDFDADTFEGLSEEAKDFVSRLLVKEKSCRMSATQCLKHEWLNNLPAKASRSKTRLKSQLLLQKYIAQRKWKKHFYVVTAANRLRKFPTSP
Sequence of Cyclin-dependent kinase-like 2 (Homo sapiens) (Q92772 whole entry): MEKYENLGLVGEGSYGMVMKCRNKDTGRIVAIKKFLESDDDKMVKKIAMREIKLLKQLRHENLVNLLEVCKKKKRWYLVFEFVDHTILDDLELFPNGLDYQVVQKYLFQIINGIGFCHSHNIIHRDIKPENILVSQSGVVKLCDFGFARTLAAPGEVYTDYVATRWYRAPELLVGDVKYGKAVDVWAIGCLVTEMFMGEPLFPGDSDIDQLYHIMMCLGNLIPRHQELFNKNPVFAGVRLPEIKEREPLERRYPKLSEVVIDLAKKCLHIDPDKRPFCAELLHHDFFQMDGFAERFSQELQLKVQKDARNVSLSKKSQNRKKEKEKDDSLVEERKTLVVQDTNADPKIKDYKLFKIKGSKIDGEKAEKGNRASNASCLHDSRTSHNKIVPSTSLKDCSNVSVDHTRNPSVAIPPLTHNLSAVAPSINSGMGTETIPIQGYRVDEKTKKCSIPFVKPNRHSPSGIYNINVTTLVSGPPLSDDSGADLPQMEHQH
Sequence of 5'-AMP-activated protein kinase catalytic subunit alpha-2 (Homo sapiens) (P54646 whole entry, looked up): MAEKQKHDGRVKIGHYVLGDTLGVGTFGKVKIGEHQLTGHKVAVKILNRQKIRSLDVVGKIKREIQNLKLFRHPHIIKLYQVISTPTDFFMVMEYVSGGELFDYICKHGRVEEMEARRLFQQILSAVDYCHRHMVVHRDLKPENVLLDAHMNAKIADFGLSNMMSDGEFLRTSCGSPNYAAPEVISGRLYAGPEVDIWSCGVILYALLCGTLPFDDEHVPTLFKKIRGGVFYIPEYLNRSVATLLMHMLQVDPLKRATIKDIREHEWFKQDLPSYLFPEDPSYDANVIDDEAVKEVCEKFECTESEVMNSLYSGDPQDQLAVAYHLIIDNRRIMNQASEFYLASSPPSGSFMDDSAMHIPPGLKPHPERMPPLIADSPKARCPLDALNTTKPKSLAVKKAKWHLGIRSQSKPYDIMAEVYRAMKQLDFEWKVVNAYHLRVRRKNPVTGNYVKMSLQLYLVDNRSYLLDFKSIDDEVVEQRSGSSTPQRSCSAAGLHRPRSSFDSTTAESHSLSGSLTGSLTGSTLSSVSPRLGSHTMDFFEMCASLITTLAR
Sequence of Mast/stem cell growth factor receptor Kit (Homo sapiens), P10721 [D816H] (P10721 whole entry D816H): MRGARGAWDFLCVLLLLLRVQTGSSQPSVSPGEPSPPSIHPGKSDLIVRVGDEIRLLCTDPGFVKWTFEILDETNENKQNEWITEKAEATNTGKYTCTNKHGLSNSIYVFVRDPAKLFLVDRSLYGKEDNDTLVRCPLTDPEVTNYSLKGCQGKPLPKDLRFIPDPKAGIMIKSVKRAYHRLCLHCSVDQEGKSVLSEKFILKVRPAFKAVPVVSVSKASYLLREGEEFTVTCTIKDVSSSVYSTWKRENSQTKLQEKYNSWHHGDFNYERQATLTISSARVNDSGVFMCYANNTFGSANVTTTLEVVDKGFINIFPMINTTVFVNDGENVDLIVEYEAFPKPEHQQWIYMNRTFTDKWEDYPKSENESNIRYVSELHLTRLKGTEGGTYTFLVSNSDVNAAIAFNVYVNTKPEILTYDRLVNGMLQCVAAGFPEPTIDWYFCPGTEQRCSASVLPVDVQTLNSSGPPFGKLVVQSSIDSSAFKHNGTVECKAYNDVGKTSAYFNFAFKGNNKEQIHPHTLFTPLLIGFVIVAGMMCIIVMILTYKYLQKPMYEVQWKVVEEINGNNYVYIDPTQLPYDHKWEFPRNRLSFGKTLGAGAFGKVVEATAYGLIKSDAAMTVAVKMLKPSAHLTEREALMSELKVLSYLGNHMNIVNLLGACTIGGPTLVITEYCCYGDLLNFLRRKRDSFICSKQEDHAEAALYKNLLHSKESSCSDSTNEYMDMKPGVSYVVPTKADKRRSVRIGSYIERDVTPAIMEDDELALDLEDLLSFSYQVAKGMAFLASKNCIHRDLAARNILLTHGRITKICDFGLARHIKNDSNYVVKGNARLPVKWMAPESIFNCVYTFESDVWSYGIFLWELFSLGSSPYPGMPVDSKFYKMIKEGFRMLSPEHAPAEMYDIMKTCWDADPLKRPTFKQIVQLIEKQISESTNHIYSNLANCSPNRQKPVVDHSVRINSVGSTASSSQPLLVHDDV
Sequence of Ribosomal protein S6 kinase alpha-4 (Homo sapiens) (O75676 whole entry, looked up): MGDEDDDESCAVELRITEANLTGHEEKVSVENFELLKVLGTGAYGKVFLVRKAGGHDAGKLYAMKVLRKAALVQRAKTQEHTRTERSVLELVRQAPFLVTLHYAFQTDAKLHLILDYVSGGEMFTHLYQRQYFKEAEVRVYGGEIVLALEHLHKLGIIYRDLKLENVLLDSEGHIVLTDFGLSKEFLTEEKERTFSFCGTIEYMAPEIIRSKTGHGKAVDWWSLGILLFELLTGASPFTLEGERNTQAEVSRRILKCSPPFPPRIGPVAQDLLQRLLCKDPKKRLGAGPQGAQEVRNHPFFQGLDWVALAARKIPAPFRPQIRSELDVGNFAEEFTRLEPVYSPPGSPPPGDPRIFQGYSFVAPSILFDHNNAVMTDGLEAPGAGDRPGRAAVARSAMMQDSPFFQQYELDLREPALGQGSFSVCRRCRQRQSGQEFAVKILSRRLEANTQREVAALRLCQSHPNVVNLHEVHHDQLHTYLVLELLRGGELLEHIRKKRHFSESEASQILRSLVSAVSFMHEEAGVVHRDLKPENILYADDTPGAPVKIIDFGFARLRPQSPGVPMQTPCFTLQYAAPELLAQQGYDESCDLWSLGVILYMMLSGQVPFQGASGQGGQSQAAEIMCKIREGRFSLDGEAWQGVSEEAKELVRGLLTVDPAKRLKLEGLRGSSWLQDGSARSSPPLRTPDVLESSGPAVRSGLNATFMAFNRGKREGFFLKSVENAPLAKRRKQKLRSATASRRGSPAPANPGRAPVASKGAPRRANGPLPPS
Sequence of Proto-oncogene tyrosine-protein kinase Src (Homo sapiens) (P12931 2-536 limits assumed): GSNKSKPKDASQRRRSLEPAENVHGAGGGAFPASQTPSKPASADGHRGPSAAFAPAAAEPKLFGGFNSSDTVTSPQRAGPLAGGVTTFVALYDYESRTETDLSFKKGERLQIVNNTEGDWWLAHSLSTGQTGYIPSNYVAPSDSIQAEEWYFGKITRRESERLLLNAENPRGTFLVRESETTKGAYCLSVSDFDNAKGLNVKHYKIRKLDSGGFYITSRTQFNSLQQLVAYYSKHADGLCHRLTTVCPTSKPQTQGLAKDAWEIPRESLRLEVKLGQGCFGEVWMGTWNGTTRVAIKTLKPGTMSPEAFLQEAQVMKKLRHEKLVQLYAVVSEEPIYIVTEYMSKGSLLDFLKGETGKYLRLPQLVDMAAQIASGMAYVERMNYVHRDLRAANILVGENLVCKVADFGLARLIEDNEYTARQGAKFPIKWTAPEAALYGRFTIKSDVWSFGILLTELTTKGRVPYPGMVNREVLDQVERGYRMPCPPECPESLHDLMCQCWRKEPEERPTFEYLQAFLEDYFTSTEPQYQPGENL
Sequence of Serine/threonine-protein kinase PAK 2 (Homo sapiens) (Q13177 whole entry): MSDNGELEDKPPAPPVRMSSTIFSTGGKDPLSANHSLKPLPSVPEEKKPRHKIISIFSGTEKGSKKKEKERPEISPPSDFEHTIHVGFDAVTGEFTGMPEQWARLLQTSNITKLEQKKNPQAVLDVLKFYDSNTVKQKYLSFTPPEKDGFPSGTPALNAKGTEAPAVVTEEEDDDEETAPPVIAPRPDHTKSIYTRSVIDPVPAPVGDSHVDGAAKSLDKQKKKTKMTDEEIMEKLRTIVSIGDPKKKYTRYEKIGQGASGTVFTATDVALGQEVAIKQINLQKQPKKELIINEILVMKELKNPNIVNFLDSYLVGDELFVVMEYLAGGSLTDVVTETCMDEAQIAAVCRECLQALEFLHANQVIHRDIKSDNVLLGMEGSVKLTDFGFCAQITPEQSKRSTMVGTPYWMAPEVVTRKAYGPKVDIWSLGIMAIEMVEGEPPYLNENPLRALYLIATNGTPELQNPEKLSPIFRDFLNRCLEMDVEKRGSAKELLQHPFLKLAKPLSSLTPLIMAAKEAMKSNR
Sequence of Mitogen-activated protein kinase 14 (Homo sapiens) (Q16539 whole entry): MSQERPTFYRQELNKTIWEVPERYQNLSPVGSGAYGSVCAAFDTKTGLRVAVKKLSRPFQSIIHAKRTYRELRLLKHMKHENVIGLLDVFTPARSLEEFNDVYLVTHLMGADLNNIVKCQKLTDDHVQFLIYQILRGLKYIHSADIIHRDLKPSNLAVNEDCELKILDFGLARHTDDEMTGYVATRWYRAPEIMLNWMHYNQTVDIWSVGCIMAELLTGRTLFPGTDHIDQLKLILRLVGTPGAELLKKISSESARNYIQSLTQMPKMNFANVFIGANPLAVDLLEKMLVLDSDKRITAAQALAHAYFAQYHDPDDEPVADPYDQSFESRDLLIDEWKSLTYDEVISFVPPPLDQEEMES

CN([C@@H]1CCc2c(CC(=O)O)c3cc(S(C)(=O)=O)ccc3n2C1)S(=O)(=O)c1ccc(F)cc1
inactive: residual activity [1] 97% | residual activity [2] 100% | residual activity [3] 100% | residual activity [4] 93% | residual activity [5] 100% | residual activity [6] 71% | inhibition [7] 10.8% | residual activity [8] 97% | residual activity [9] 100% | residual activity [10] 100% | residual activity [11] 85% | residual activity [12] 100% | residual activity [13] 100% | residual activity [14] 100% | residual activity [15] 96% | residual activity [16] 91% | residual activity [17] 100% | residual activity [18] 82% | residual activity [19] 100% | residual activity [20] 87% | residual activity [21] 100% | inhibition [22] 0.0525% | residual activity [23] 59% | residual activity [24] 89% | residual activity [25] 92% | residual activity [26] 85% | residual activity [27] 100% | residual activity [28] 99% | residual activity [29] 79% | residual activity [30] 90% | residual activity [31] 100% | residual activity [32] 100% | residual activity [33] 100% | residual activity [34] 100% | residual activity [35] 87% | residual activity [36] 100% | residual activity [37] 100% | residual activity [38] 100% | residual activity [39] 88% | residual activity [40] 100% | residual activity [41] 95% | residual activity [42] 100% | residual activity [43] 100%

CN([C@@H]1CCc2c(CC(=O)O)c3ccccc3n2C1)S(=O)(=O)c1ccc(F)cc1 [MK-7246]
inactive: residual activity [1] 96% | residual activity [2] 100% | residual activity [3] 91% | residual activity [4] 100% | residual activity [5] 100% | residual activity [6] 78% | inhibition [7] 22.4% | residual activity [8] 95% | residual activity [9] 100% | residual activity [10] 100% | residual activity [11] 100% | residual activity [12] 95% | residual activity [13] 94% | residual activity [14] 100% | residual activity [15] 100% | residual activity [16] 93% | residual activity [17] 100% | residual activity [18] 100% | residual activity [19] 100% | residual activity [20] 94% | residual activity [21] 100% | inhibition [22] -7.68% | residual activity [23] 93% | residual activity [24] 80% | residual activity [25] 100% | residual activity [26] 82% | residual activity [27] 100% | residual activity [28] 100% | residual activity [29] 100% | residual activity [30] 83% | residual activity [31] 90% | residual activity [32] 100% | residual activity [33] 100% | residual activity [34] 100% | residual activity [35] 100% | residual activity [36] 100% | residual activity [37] 100% | residual activity [38] 100% | residual activity [39] 83% | residual activity [40] 100% | residual activity [41] 89% | residual activity [42] 100% | residual activity [43] 100%
